ChEMBL document CHEMBL1121460, “Some spiro analogues of the potent analgesic ketobemidone” (J Med Chem, 1980)
Calls of active or inactive are those of the source. The calls are words filed in the database; no cut-off is given here.

Tests used:
[1] = organism: Mus musculus; test: Evaluated for analgesic activity in mice using hot plate method; format: functional
[2] = organism: Mus musculus; test: Evaluated for analgesic activity in mice using Nilsen test; format: functional
[3] = biological target: Opioid receptor (Rattus norvegicus, UniProt P33533+P34975+P33535); test: Tested for Opioid receptors affinity determined by the capacity to displace bound, radiolabeled dihydromorphine from rat brain homogenates.
[4] = organism: Mus musculus; test: Evaluated for activity in Nilsen test
[5] = organism: Mus musculus; test: Evaluated for analgesic activity in mice using writhing test; format: functional
[6] = test system: Monkey; test: Evaluated for activity in inverted screen assay; format: functional; settings: Cercopithecidae
[7] = test system: Monkey; test: Evaluated for depressant effects in photocell activity cages at 10 mg/kg; IA is Inactive.; format: functional, organism-based; set-up: dose 10 mg/kg; settings: Cercopithecidae
[8] = test system: Monkey; test: Evaluated for depressant effects in photocell activity cages at 60 mg/kg; IA is Inactive.; format: functional, organism-based; set-up: dose 60 mg/kg; settings: Cercopithecidae
[9] = test system: Monkey; test: Evaluated for single dose suppression tests in monkeys at 10 mg/kg; Not Effective (activity in relation to morphine); format: functional, organism-based; set-up: dose 10 mg/kg; settings: Cercopithecidae
[10] = test system: Monkey; test: Evaluated for single dose suppression tests in monkeys at 2 mg/kg; Not Effective (activity in relation to morphine); format: functional, organism-based; set-up: dose 2 mg/kg; settings: Cercopithecidae
[11] = test system: Monkey; test: Evaluated for single dose suppression tests in monkeys at 5 mg/kg; Not Effective (activity in relation to morphine); format: functional, organism-based; set-up: dose 5 mg/kg; settings: Cercopithecidae
[12] = Lethal dose in monkeys; format: toxicity, organism-based; settings: cercopithecidae, in vivo

CCC(=O)C1(c2cccc(O)c2)CCN(C)CC1 [KETOBEMIDONE]
ED50 [1]: 0.8 mg/kg

CCCCCN1CCC2(CC1)c1cc(O)ccc1C(C)(CC)OC2CC (configuration not stated)
ED50 [2]: > 30 mg/kg
ED50 [1]: > 30 mg/kg
Ki [3]: 5 µM

C=CCN1CCC2(CC1)c1cc(O)ccc1C(C)(C)OC2CC (configuration not stated)
ED50 [2]: > 30 mg/kg
ED50 [1]: > 30 mg/kg
Ki [3]: 5 µM

CN1CC[C@]23c4c5ccc(O)c4O[C@H]2[C@@H](O)C=C[C@H]3[C@H]1C5 [MORPHINE]
ED50 [4]: 0.8 mg/kg

CCCCCN1CCC2(CC1)c1cc(O)ccc1C(C)(C)OC2CC (configuration not stated)
ED50 [2]: > 30 mg/kg
ED50 [1]: > 30 mg/kg
ED50 [5]: 4.2 mg/kg
ED50 [6]: 38 mg/kg
ED50 [7]: inactive
ED50 [8]: inactive
Activity [9]: inactive
Activity [10]: inactive
Activity [11]: inactive
LD50 [12]: 80 mg/kg
Ki [3]: 2 µM

CCC1OC(C)(C)c2ccc(O)cc2C12CCN(C)CC2 (configuration not stated)
ED50 [2]: > 30 mg/kg
ED50 [1]: > 30 mg/kg
Ki [3]: 10 µM
